Assay results: patent US20260200926A1, “TREM2 MODULATORS” (Muna Therapeutics ApS, priority 2022, published 2026)
Counter-ions that a name gives are not always drawn. Like-named read-outs stand apart in the source and are kept apart here.

Target: T1, Human TREM2 (Homo sapiens, UniProt Q9NZC2)
T1 construct: expressed in transfected cells
Experiment: Human TREM2 activity: cellular phosphorylation of Syk (AlphaLISA SureFire Ultra p-SYK) in HEK293/DAP12+TREM2 stable cell line
Format: cell-based
Conditions: for Emax: maximal response relative to reference agonist example 1B (remaining examples)
In short: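 HEK293 cells stably co-expressing human TREM2 and DAP12 were seeded at 10,000 cells/well and used 20–24 h later. Compounds were tested at 8 concentrations (top 100 μM, 1:6 steps, 0.5% DMSO) for 30 min at 37 °C. Syk phosphorylation at Tyr525/526 was read in lysates by AlphaLISA SureFire Ultra.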

[1] = phospho-Syk AlphaLISA signal, HEK293/DAP12+TREM2 cells, concentration giving 50% of maximal response, read-out: EC50

T1 sequence (Q9NZC2 19-230): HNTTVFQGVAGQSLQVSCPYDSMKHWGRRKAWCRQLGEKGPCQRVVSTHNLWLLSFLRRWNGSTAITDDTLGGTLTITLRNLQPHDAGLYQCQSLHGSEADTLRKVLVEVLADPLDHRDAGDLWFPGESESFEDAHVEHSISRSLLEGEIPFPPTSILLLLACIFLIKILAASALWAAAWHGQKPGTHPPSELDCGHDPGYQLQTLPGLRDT
T1 sequence (O43914 22-113 partner): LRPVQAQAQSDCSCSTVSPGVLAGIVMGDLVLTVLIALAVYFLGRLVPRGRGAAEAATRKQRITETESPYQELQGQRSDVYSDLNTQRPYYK

Row | Structure (SMILES) | Emax (HEK293, read-out: Emax) [%] | EC50 [1] [nM] | EC50 [nM] | Emax
1 | Cc1nc2c(-c3ccc(Cl)cc3F)cc([C@H]3CCO[C@@H](c4cnn(C5CC5)c4)C3)cc2c(=O)n1C (single isomer, unassigned) [Example 119B] | 75 to 110 | 1 to 10 |  | 
2 | Cc1cc([C@H]2CN(c3cc4c(=O)n(C)c(C)nc4c(-c4ccc(C(F)F)nc4)n3)CC(F)(F)O2)ccn1 (single isomer, unassigned) [Example 181B] | 75 to 110 | 1 to 10 |  | 
3 | COc1ccc(Cn2c(C)nc3c(-c4ccc(Cl)cc4F)nc(N4CCOC(c5cnn(C)c5)C4)nc3c2=O)cc1 (centres unmarked) [Example 59, 8-(4-chloro-2-fluorophenyl)-3-(4-methoxybenzyl)-2-methyl-6-(2-(1-methyl-1H-pyrazol-4-yl)morpholino)pyrimido[5,4-d]pyrimidin-4(3H)-one] | 75 to 110 | 100 to 1000 |  | 
4 | Cc1nc2c(-c3cc(F)c(F)cc3F)nc(N3C[C@@H](c4cnn(C)c4)OC(C)(C)C3)cc2c(=O)n1C (single isomer, unassigned) [Example 150A] | 75 to 110 | 10 to 100 |  | 
5 | Cc1nc2c(-c3ccc(Cl)cc3F)nc(N3CCO[C@H](c4cnn(C5CC5)c4)C3)nc2c(=O)n1C (single isomer, unassigned) [Example 26A] | 75 to 110 | 10 to 100 |  | 
6 | Cc1nc2c(-c3ccc(C(F)(F)F)cc3F)nc([C@H]3CCO[C@@H](c4cnn(C)c4)C3)nc2c(=O)n1C (single isomer, unassigned) [Example 66] | 75 to 110 | > 1000 |  | 
7 | Cc1nc2c(-c3ccc(F)cc3F)nc(N3C[C@H](c4cnn(C)c4)OC(F)(F)C3)nc2c(=O)n1C (single isomer, unassigned) [Example 156B] | 75 to 110 | 10 to 100 |  | 
8 | Cc1nc2c(-c3ccc(C(F)(F)F)cc3F)nc(N3CCO[C@H](c4cnn(C5CC5)c4)C3)nc2c(=O)n1C (single isomer, unassigned) [Example 20A] | 75 to 110 | 10 to 100 |  | 
9 | Cc1cc([C@@H]2CN(c3nc(-c4ccc(F)cc4F)c4nc(C)n(C)c(=O)c4n3)CC(C)(C)O2)ccn1 (single isomer, unassigned) [Example 170A] | < 75 | 100 to 1000 |  | 
10 | Cc1nc2c(-c3ccc(Cl)cc3F)nc(N3CCO[C@@H](c4cnn(C)c4)C3)nc2c(=O)[nH]1 (single isomer, unassigned) [Example 203B] | < 75 | 100 to 1000 |  | 
11 | Cc1nc2c(-c3ccc(Cl)cc3F)nc(N3CCOC4(CCc5ccccc54)C3)nc2c(=O)n1C (centres unmarked) [Example 85, 8-(4-chloro-2-fluorophenyl)-6-(2,3-dihydrospiro[indene-1,2′-morpholin]-4′-yl)-2,3-dimethylpyrimido[5,4-d]pyrimidin-4(3H)-one] | < 75 | > 1000 |  | 
12 | Cc1nc2c(-c3ccc(Cl)cc3F)nc(N3C[C@@H](c4cnn(C)n4)OC(C)(C)C3)cc2c(=O)n1C (single isomer, unassigned) [Example 147A] | < 75 | 10 to 100 |  | 
13 | Cc1nc2c(-c3ccc(C(F)(F)F)cc3C#N)nc(N3C[C@@H](c4cnn(C5CC5)c4)O[C@@H](C)C3)cc2c(=O)n1C (single isomer, unassigned) [Example 202A] | < 75 | > 1000 |  | 
14 | C[C@@H]1CN(c2cc3c(=O)n(C)c(C(F)(F)F)nc3c(-c3ccc(F)cc3F)n2)C[C@H](c2cnn(C3CC3)c2)O1 (single isomer, unassigned) [Example 193B] | < 75 | 10 to 100 |  | 
15 | Cn1cc([C@H]2CN(c3nc(-c4ccc(F)cc4F)c4nc(C(F)(F)F)n(C)c(=O)c4n3)CC3(CC3)O2)cn1 (single isomer, unassigned) [Example 165B] | 75 to 110 | 10 to 100 |  | 
16 | Cc1nc2c(-c3ccc(F)cc3F)nc(N3C[C@@H](c4cnn(C)c4)OC(F)(F)C3)nc2c(=O)n1C (single isomer, unassigned) [Example 156A] | 75 to 110 | 1 to 10 |  | 
17 | C[C@H]1CN(c2cc3c(=O)n(C)c(C(F)(F)F)nc3c(-c3ccc(F)cc3F)n2)C[C@@H](c2cnn(C3CC3)c2)O1 (single isomer, unassigned) [Example 193A] | 75 to 110 | 1 to 10 |  | 
18 | Cc1nc2c(-c3ccc(Cl)cc3F)nc([C@@H]3C[C@H](c4cnn(C)c4)OC(C)(C)C3)nc2c(=O)n1C (single isomer, unassigned) [Example 111B] | < 75 | 100 to 1000 |  | 
19 | Cc1nc2c(-c3ccc(C(F)(F)F)nc3)nc(N3CCOC(c4cnn(C5CC5)c4)C3)nc2c(=O)n1C (racemic) [Example 19, 6-(2-(1-cyclopropyl-1H-pyrazol-4-yl)morpholino)-2,3-dimethyl-8-(6-(trifluoromethyl)pyridin-3-yl)pyrimido[5,4-d]pyrimidin-4 (3H)-one] | < 75 | 10 to 100 |  | 

Row | Structure (SMILES) | Emax (HEK293, read-out: Emax) [%] | EC50 [1] [nM] | EC50 [nM] | Emax
20 | Cc1cc([C@@H]2CN(c3cc4c(=O)n(C)c(C)nc4c(-c4ccc(C(F)(F)F)nc4)n3)CCO2)ccn1 (single isomer, unassigned) [Example 138A] | > 110 | 10 to 100 |  | 
21 | Cc1nc2c(-c3ccc(Cl)cc3F)nc(C3CCOC(c4cnn(C)c4)C3)nc2c(=O)n1C (centres unmarked) [Example 17, 8-(4-chloro-2-fluorophenyl)-2,3-dimethyl-6-(2-(1-methyl-1H-pyrazol-4-yl)tetrahydro-2H-pyran-4-yl)pyrimido[5,4-d]pyrimidin-4 (3H)-one] | 75 to 110 | 100 to 1000 |  | 
22 | Cc1nc2c(-c3ccc(C(F)(F)F)cc3F)nc(N3CCO[C@@H](c4cnn(C)c4)C3)nc2c(=O)n1C (single isomer, unassigned) [Example 25B] | < 75 | 10 to 100 |  | 
23 | Cc1cc([C@@H]2CN(c3cc4c(=O)n(C)c(C)nc4c(-c4ccc(C(F)(F)F)nc4)n3)C[C@H](C)O2)ccn1 (single isomer, unassigned) [Example 199A] | < 75 | 10 to 100 |  | 
24 | Cc1nc2c(-c3ccc(C(F)(F)F)cc3C#N)nc(N3C[C@@H](C)O[C@@H](c4cnn(C5CC5)c4)C3)cc2c(=O)n1C (single isomer, unassigned) [Example 202B] | < 75 | > 1000 |  | 
25 | Cc1nc2c(-c3ccc(Cl)cc3F)nc(N3C[C@H](c4cnn(C)c4)OC4(CCC4)C3)cc2c(=O)n1C (single isomer, unassigned) [Example 151B] | < 75 | 100 to 1000 |  | 
26 | Cc1nc2c(-c3cc(F)c(F)c(F)c3)nc(N3CCOC(c4cnn(C)c4)C3)nc2c(=O)n1C (centres unmarked) [Example 8, 2,3-dimethyl-6-(2-(1-methyl-1H-pyrazol-4-yl)morpholino)-8-(3,4,5-trifluorophenyl)pyrimido[5,4-d]pyrimidin-4(3H)-one] | < 75 | 100 to 1000 |  | 
27 | Cc1nc2c(-c3ccc(Cl)cc3F)nc(N3CCOC(c4ccn(C)n4)C3)nc2c(=O)n1C (centres unmarked) [Example 36, 8-(4-chloro-2-fluorophenyl)-2,3-dimethyl-6-(2-(1-methyl-1H-pyrazol-3-yl)morpholino)pyrimido[5,4-d]pyrimidin-4 (3H)-one] |  |  | 100 to 1000 | ++ (75-110%)
28 | Cc1cc([C@@H]2CN(c3cc4c(=O)n(C)c(C)nc4c(-c4ccc(C(F)(F)F)cc4F)n3)CCO2)ccn1 (single isomer, unassigned) [Example 137A] | 75 to 110 | 1 to 10 |  | 
29 | Cn1cc([C@H]2CN(c3nc(-c4cc(F)c(F)cc4F)c4nc(C(F)(F)F)n(C)c(=O)c4n3)CC3(CC3)O2)cn1 (single isomer, unassigned) [Example 162B] | < 75 | 10 to 100 |  | 
30 | Cc1nc2c(-c3ccc(Cl)cc3F)nc(N3CCOC(c4ccnn4C)C3)nc2c(=O)n1C (centres unmarked) [Example 44, 8-(4-chloro-2-fluorophenyl)-2,3-dimethyl-6-(2-(1-methyl-1H-pyrazol-5-yl)morpholino)pyrimido[5,4-d]pyrimidin-4(3H)-one] | 75 to 110 | 100 to 1000 |  | 
31 | Cc1cc([C@H]2CN(c3nc(-c4ccc(Cl)cc4F)c4nc(C)n(C)c(=O)c4n3)C[C@@H](C)O2)ccn1 (single isomer, unassigned) [Example 176B] | 75 to 110 | 1 to 10 |  | 
32 | Cc1nc2c(C3CC4(C3)CC(F)(F)C4)nc(N3CCOC(c4cnn(C)c4)C3)nc2c(=O)n1C (centres unmarked) [Example 72, 8-(6,6-difluorospiro[3.3]heptan-2-yl)-2,3-dimethyl-6-(2-(1-methyl-1H-pyrazol-4-yl)morpholino)pyrimido[5,4-d]pyrimidin-4 (3H)-one] | 75 to 110 | 100 to 1000 |  | 
33 | Cc1nc2c(-c3ccc(Cl)cc3F)nc(N3CCOC(c4cnn(C5CNC5)c4)C3)nc2c(=O)n1C (centres unmarked) [Example 41, 6-(2-(1-(azetidin-3-yl)-1H-pyrazol-4-yl)morpholino)-8-(4-chloro-2-fluorophenyl)-2,3-dimethylpyrimido[5,4-d]pyrimidin-4 (3H)-one hydrochloride salt] | 75 to 110 | 100 to 1000 |  | 
34 | Cc1nc2c(-c3ccc(C(F)(F)F)cc3F)nc(N3CCO[C@@H](c4cnn(C)c4)C3)cc2c(=O)n1C (single isomer, unassigned) [Example 126A] | 75 to 110 | 1 to 10 |  | 
35 | Cc1nc2c(-c3ccc(Cl)cc3F)nc(N3CCn4nc(C(F)(F)F)nc4C3)nc2c(=O)n1C [Example 188, 8-(4-chloro-2-fluorophenyl)-2,3-dimethyl-6-(2-(trifluoromethyl)-5,6-dihydro-[1,2,4]triazolo[1,5-a]pyrazin-7 (8H)-yl)pyrimido[5,4-d]pyrimidin-4 (3H)-one] | < 75 | 10 to 100 |  | 
36 | Cc1nc2c(-c3ccc(Cl)cc3F)nc(N3CCOC4(CCCC4)C3)nc2c(=O)n1C [Example 54, 8-(4-chloro-2-fluorophenyl)-2,3-dimethyl-6-(6-oxa-9-azaspiro[4.5]decan-9-yl)pyrimido[5,4-d]pyrimidin-4(3H)-one] | < 75 | > 1000 |  | 
37 | Cc1cc([C@H]2CN(c3nc(-c4ccc(F)cc4F)c4nc(C(F)(F)F)n(C)c(=O)c4n3)C[C@@H](C)O2)ccn1 (single isomer, unassigned) [Example 191B] | 75 to 110 | 1 to 10 |  | 
